According to patent publication US7572778B2, “Fluorocombretastatin and derivatives thereof” (Sigma-Tau Industrie Farmaceutiche Riunite S.p.A., priority 2003, dated 2009):
Marks after values point to notes of the source that are not given here.

What was measured:
[1] = system: NCI-H460 human lung carcinoma; test: Tumor growth evaluation, NCI-H460 s.c. xenograft; format: in vivo, CD-1 nude mice
Protocol: NCI-H460 human lung carcinoma from in vitro cell cultures were injected s.c. (3×10^6 cells/100 μl/mouse) into the right flank of CD-1 nude mice. Four days after tumor implant mice started to be treated with ST2493 at the dose of 50 mg/kg intraperitoneally according to the following schedule: qdx5/w/3wks. CA-4P (combretastatin A-4 P) at the same dose was used as positive control.
All animals were weighed during the whole treatment period, in order to adjust the volume of drug administration and to record the percent of body weight loss due in the course of treatment.
In a following experiment with the same animal model ST2493 (prodrug of ST2303) was administered intravenously at the doses of 25 and 50 mg/kg according to a q2dx6 schedule.
Tumor growth was assessed by twice a week measurements of the shortest (width) and the longest (length) diameters of each tumor by a Vernier caliper and the antitumor activity was evaluated in terms of percent inhibition of tumor growth. Tumor volume (or tumor weight*) was calculated according to the following formula using caliper measurements: tumor volume or TV (mm^3)=[length (mm)×width (mm)^2]/2.
Tumor volume inhibition percent (% TVI) was calculated according to the equation: 100−[(mean tumor volume of treated group/mean tumor volume of control group)×100]. A P value≦0.05 was considered statistically significant.

[2] = system: bovine microvascular endothelial cells (BMEC); test: Cytotoxicity assay (sulforhodamine B), BMEC; format: cell-based; settings: Bos taurus, Endothelial cell, 24 h exposure, then 48 h drug-free
Protocol: (§1) Primary cultures of bovine microvascular endothelial cells (BMEC) were obtained from bovine adrenal glands as described by Folkman (Folkman J., Haudenschild C. C., Zetter B. R. Long-term culture of capillary endothelial cells. Proc. Natl. Acad. Sci. USA, 1979 October; 76(10): 5217-21). BMEC were maintained in DMEM supplemented with 20% fetal calf serum (FCS), 50 units/ml heparin (Sigma, St. Louis, Mo.), 50 μg/ml bovine brain extract, 100 units/ml gentamycin. HUVEC (Human umbilical vein endothelial cells) were obtained from BioWhittaker (Walkersville, Md.) and grown in EGM-2 (BioWhittaker). EA-hy 926 cell line, a HUVEC-adenocarcinoma immortalized cell hybrid, was obtained from the Dipartimento di Scienze Biomediche e Oncologia Umana (Universita di Bari, Italy), and cultured in DMEM supplemented with 10% serum and 50 μg/ml gentamycin sulfate.
(§2) To test the effects of ST2303 on growth, cells were seeded in 96-well tissue culture plates (Corning) at approximately 10% confluence and were allowed to attach and recover for at least 24 h. Varying concentrations of the compound were then added to each well. […] The number of surviving cells was then determined by staining with sulforhodamine B as described by Skehan et al. (1990). ST2303 inhibitory concentration 50 (IC50)±SD on different cell lines, evaluated by “ALLFIT” computer program, are shown in Table 1.

[3] = system: HUVEC (Human umbilical vein endothelial cells); test: Cytotoxicity assay (sulforhodamine B), HUVEC; format: cell-based; settings: 24 h exposure, then 48 h drug-free
Protocol: as §1, §2

EA-hy 926 cell line = test: Cytotoxicity assay (sulforhodamine B), EA-hy 926; format: cell-based; settings: Homo sapiens, EAHY.926, 24 h exposure, then 48 h drug-free
Protocol: as §1, §2

[4] = system: NCIH460 human lung carcinoma; test: Cytotoxicity assay (sulforhodamine B), NCI-H460; format: cell-based; settings: 24 h exposure, then 48 h drug-free
Protocol: (§3) The following cell lines were purchased from ATCC and cultured according to manufacturer's instructions: NCIH460 human lung carcinoma, MeWo human melanoma, MES-SA human uterine sarcoma and HCT116 human colorectal carcinoma. HT-29 human colon adenocarcinoma cells and A2780 human ovarian carcinoma, obtained from Istituto Nazionale Tumori (Milan, Italy), were grown in RPMI 1640 (GIBCO) containing 10% fetal bovine serum (GIBCO) and 50 μg/ml gentamycin sulfate.
(§4) To test the effects of ST2303 on growth, cells were seeded in 96-well tissue culture plates (Corning) at approximately 10% confluence and were allowed to attach and recover for at least 24 h. Varying concentrations of the compound were then added to each well. The plates were incubated for 24 h and then washed before incubating them for additional 48 h. The number of surviving cells was then determined by staining with sulforhodamine B as described by Skehan et al. (1990). ST2303 inhibitory concentration 50 (IC50)±SD on different cell lines, evaluated by “ALLFIT” computer program, are shown in Table 1.

[5] = system: HT-29 human colon adenocarcinoma cells; test: Cytotoxicity assay (sulforhodamine B), HT-29; format: cell-based; settings: HT29, 24 h exposure, then 48 h drug-free
Protocol: as §3, §4

MeWo human melanoma = test: Cytotoxicity assay (sulforhodamine B), MeWo; format: cell-based; settings: 24 h exposure, then 48 h drug-free
Protocol: as §3, §4

[6] = system: A2780 human ovarian carcinoma; test: Cytotoxicity assay (sulforhodamine B), A2780; format: cell-based; settings: 24 h exposure, then 48 h drug-free
Protocol: as §3, §4

[7] = system: MES-SA human uterine sarcoma; test: Cytotoxicity assay (sulforhodamine B), MES-SA; format: cell-based; settings: 24 h exposure, then 48 h drug-free
Protocol: as §3, §4

[8] = system: HCT116 human colorectal carcinoma; test: Cytotoxicity assay (sulforhodamine B), HCT116; format: cell-based; settings: HCT 116, 24 h exposure, then 48 h drug-free
Protocol: as §3, §4

tubulin = test: Tubulin polymerisation inhibition test (CytoDINAMIX Screen, turbidity at 340 nm); format: biochemical; settings: tubulin 3 mg/ml, 37° C.; mean of 3 independent determinations; read-out: IC50 ± SE, tubulin polymerisation
Protocol: The tubulin polymerisation test was performed by CytoDINAMIX Screen™. Turbidity from tubulin polimerisation was measured with a Victor2 from Wallac. HTS-tubulin was diluted to 3 mg/ml in buffer PEM [100 mM PIPES (pH 6.9), 1 mM EGTA and 1 mM MgCl2] containing 1 mM GTP (GPEM) plus 5% glycerol, and kept on ice. Aliquots of this solution was then placed at 37° C. in presence of taxol (3 μM) or colcemid (3 μM) or combretastatin (ST1986) or compounds to examinate, and absorbance was measured at 340 nm. The IC50 values were determined by non-linear regression analysis using “Prism GraphPad” software.
The value indicated in Table 3 is the mean of 3 independent determinations.

[9] = i.p. 50 mg/kg, qdx5/w/3wks, day 11 after cell injection
[10] = i.p. 50 mg/kg, qdx5/w/3wks, day 28 after cell injection

Q: What does the source list for COc1ccc(/C(F)=C(/F)c2cc(OC)c(OC)c(OC)c2)cc1OP(=O)([O-])[O-].[Na+].[Na+] [ST2493, (Z)-1,2-difluoro-1-(3,4,5-trimethoxyphenyl)-2-(3-hydroxy-4-methoxyphenyl)ethene o-disodium phosphate]?
A: TVI compared to vehicle (in words) ([1]; both intraperitoneal and intravenous administration): significant TVI; % BWL (body weight loss) ([1]; i.p. 50 mg/kg, qdx5/w/3wks): 8%; mortality ([1]; i.p. 50 mg/kg, qdx5/w/3wks): 0/8; % TVI (tumor volume inhibition) [1, 9]: 68** %; % TVI (tumor volume inhibition) [1, 10]: 73*** %; % BWL (body weight loss) ([1]; i.v. 25 mg/kg, q2dx6): 8%; mortality ([1]; i.v. 25 mg/kg, q2dx6): 0/8; % TVI (tumor volume inhibition) ([1]; i.v. 25 mg/kg, q2dx6, day 11 after cell injection): 63** %; % TVI (tumor volume inhibition) ([1]; i.v. 25 mg/kg, q2dx6, day 28 after cell injection): 64*** %; % BWL (body weight loss) ([1]; i.v. 50 mg/kg, q2dx6): 8%; mortality ([1]; i.v. 50 mg/kg, q2dx6): 0/8; % TVI (tumor volume inhibition) ([1]; i.v. 50 mg/kg, q2dx6, day 11 after cell injection): 73** %; % TVI (tumor volume inhibition) ([1]; i.v. 50 mg/kg, q2dx6, day 28 after cell injection): 73** %; TVI compared with the same dose of CA-4P (in words) ([1]; intraperitoneal, 50 mg/kg, p=0.0095 at day 11, p=0.0180 at day 28, Mann Whitney's test): significant difference

Q: What does the source list for COc1ccc(/C=C\c2cc(OC)c(OC)c(OC)c2)cc1OP(=O)(O)O [CA-4P, combretastatin A-4 P, reference compound]?
A: % BWL (body weight loss) ([1]; i.p. 50 mg/kg, qdx5/w/3wks): 3%; mortality ([1]; i.p. 50 mg/kg, qdx5/w/3wks): 0/8; % TVI (tumor volume inhibition) [1, 9]: 47** %; % TVI (tumor volume inhibition) [1, 10]: 61*** %

Q: For COc1ccc(/C(F)=C(/F)c2cc(OC)c(OC)c(OC)c2)cc1O [ST2303, (Z)-1,2-difluoro-1-(3,4,5 trimethoxyphenyl)-2-(3-hydroxy-4-methoxyphenyl)ethene], which IC50 [2] is on record?
A: 1 ± 0.5 nM

Q: And the IC50 [3]?
A: 1 ± 0.3 nM

Q: What about the IC50 (EA-hy 926 cell line) of the same molecule?
A: 5 ± 0.5 nM

Q: And the IC50 [4]?
A: 3 ± 0.005 nM

Q: And the IC50 [5]?
A: > 200 nM

Q: And the IC50 (MeWo human melanoma)?
A: 3.6 ± 0.0003 nM

Q: What about the IC50 [6] of the same molecule?
A: 3 ± 0.001 nM

Q: What about the IC50 [7] of the same molecule?
A: < 1 nM

Q: What about the IC50 [8] of the same molecule?
A: 2.2 ± 0.05 nM

Q: What about the IC50 (tubulin) of the same molecule?
A: 7700 ± 120 nM
